Measured values taken from ChEMBL document CHEMBL5214960 (J Med Chem, 2022).
Positions count from the first letter of the chain named. ≈ marks a conversion by molar mass, not a printed value. Each block holds one molecule with its values, some of them ahead of it.

Assays:
[1] = Metabolic stability in mouse hepatic microsome at 4 uM measured after 30 mins by LC-MS analysis; assay type: ADME; details: liver microsomes, read-out: Stability
[2] = biological target: CYP2D6 (Homo sapiens, UniProt P10635); assay: Inhibition of human hepatic CYP2D6 using bufuralol HCL as substrate measured after 3 mins by LC-MS analysis relative to control; assay type: ADME, tissue-based; design: concentration or dose not given beside the values; details: human hepatic CYP2D6 (liver), probe bufuralol HCl
[3] = biological target: CYP3A4 (Homo sapiens, UniProt P08684); assay: Inhibition of human hepatic CYP3A4 using midazolam as substrate measured after 3 mins by LC-MS analysis relative to control; assay type: ADME, tissue-based; design: concentration or dose not given beside the values; details: human hepatic CYP3A4 (liver), probe midazolam
[4] = biological target: CYP2C9 (Homo sapiens, UniProt P11712); assay: Inhibition of human hepatic CYP2C9 using diclofenac as substrate measured after 10 mins by LC-MS analysis relative to control; assay type: ADME, tissue-based; design: concentration or dose not given beside the values; details: human hepatic CYP2C9 (liver), probe diclofenac
[5] = Aqueous solubility of compound at pH 6 by HPLC analysis; assay type: physicochemical; details: buffer
[6] = Metabolic stability in dog hepatic microsome at 4 uM measured after 30 mins by LC-MS analysis; assay type: ADME, Canis lupus familiaris; details: liver microsomes, read-out: Stability
[7] = Metabolic stability in human hepatic microsome at 4 uM measured after 30 mins by LC-MS analysis; assay type: ADME; details: liver microsomes, read-out: Stability
[8] = Plasma protein binding in mouse assessed as unbound fraction measured after 4.5 hrs by LC-MS/MS analysis; assay type: ADME, cell-free
[9] = biological target: T1, Low molecular weight phosphotyrosine protein phosphatase (Rattus norvegicus, UniProt P41498); assay: Inhibition of N-terminal His-tagged full length rat LMW-PTP expressed in Escherichia coli BL21(DE3)
T1 sequence (P41498 whole entry): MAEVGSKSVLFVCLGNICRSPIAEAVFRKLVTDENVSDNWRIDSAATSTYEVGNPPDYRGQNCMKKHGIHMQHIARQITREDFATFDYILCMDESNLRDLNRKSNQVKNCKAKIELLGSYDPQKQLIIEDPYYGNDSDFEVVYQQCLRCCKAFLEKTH

[10] = AUC(0 to 8 hrs) in CD-1 mouse plasma at 2 mg/kg, iv measured after 8 hrs by LC-MS/MS analysis; assay type: ADME, organism-based; design: dose 2 mg/kg, time 8 hrs, route iv; details: in vivo
[11] = Half life in Sprague-Dawley rat plasma at 30 mg/kg, po measured after 24 hrs by LC-MS/MS analysis; assay type: ADME, organism-based; details: in vivo
[12] = Tmax in Sprague-Dawley rat plasma at 30 mg/kg, po measured after 24 hrs by LC-MS/MS analysis; assay type: ADME, organism-based; details: in vivo
[13] = Unbound Cmax in plasma of Sprague-Dawley rat at 30 mg/kg, po measured after 24 hrs by LC-MS/MS analysis; assay type: ADME, organism-based; details: in vivo
[14] = Cmax in Sprague-Dawley rat plasma at 30 mg/kg, po measured after 24 hrs by LC-MS/MS analysis; assay type: ADME, organism-based; design: time 24 hrs, dose 30 mg/kg, route po; details: in vivo
[15] = Oral bioavailability in CD-1 mouse plasma at 10 mg/kg measured after 8 hrs by LC-MS/MS analysis; assay type: ADME, organism-based; details: CD-1, mouse, plasma
[16] = Half life in CD-1 mouse plasma at 10 mg/kg, po measured after 8 hrs by LC-MS/MS analysis; assay type: ADME, organism-based; details: in vivo
[17] = biological target: T2, Low molecular weight phosphotyrosine protein phosphatase (Mus musculus, UniProt Q9D358); assay: Inhibition of N-terminal His-tagged full length mouse LMW-PTP expressed in Escherichia coli BL21(DE3) by […] analysis
T2 sequence (Q9D358 whole entry): T1 sequence (P41498 whole entry) with N35K, K65R, R80K, H158Y

[18] = Half life in CD-1 mouse plasma at 2 mg/kg, iv measured after 8 hrs by LC-MS/MS analysis; assay type: ADME, organism-based; details: mouse, in vivo, iv, 2 mg/kg, 8 h
[19] = AUC(0 to 12 hrs) in Sprague-Dawley rat plasma at 30 mg/kg, po measured after 24 hrs by LC-MS/MS analysis; assay type: ADME, organism-based; design: time 24 hrs, dose 30 mg/kg, route po; details: in vivo
[20] = Volume of distribution at steady state in CD-1 mouse plasma at 2 mg/kg, iv measured after 8 hrs by LC-MS/MS analysis; assay type: ADME, organism-based; details: in vivo
[21] = Cmax in CD-1 mouse plasma at 10 mg/kg, po measured after 8 hrs by LC-MS/MS analysis; assay type: ADME, organism-based; design: dose 10 mg/kg, time 8 hrs, route po; details: mouse, in vivo, 8 h
[22] = Inhibition of PTP-Meg2 (unknown origin); design: species or system Homo sapiens
[23] = Unbound Cmax in plasma of CD-1 mouse at 2 mg/kg, iv measured after 8 hrs by LC-MS/MS analysis; assay type: ADME, organism-based; details: in vivo
[24] = AUC(0 to 8 hrs) in CD-1 mouse plasma at 10 mg/kg, po measured after 8 hrs by LC-MS/MS analysis; assay type: ADME, organism-based; design: dose 10 mg/kg, time 8 hrs, route po; details: in vivo
[25] = Cmax in CD-1 mouse plasma at 2 mg/kg, iv measured after 8 hrs by LC-MS/MS analysis; assay type: ADME, organism-based; design: time 8 hrs, dose 2 mg/kg, route iv
[26] = Unbound Cmax in plasma of CD-1 mouse at 10 mg/kg, po measured after 8 hrs by LC-MS/MS analysis; assay type: ADME, organism-based; details: in vivo
[27] = biological target: T3, Low molecular weight phosphotyrosine protein phosphatase (Homo sapiens, UniProt P24666); assay: Inhibition of His-tagged human LMW-PTP expressed in Escherichia coli BL21 using pNPP as substrate incubated for 10 mins by microplate reader based spectrophotometric analysis
T3 sequence (P24666 whole entry): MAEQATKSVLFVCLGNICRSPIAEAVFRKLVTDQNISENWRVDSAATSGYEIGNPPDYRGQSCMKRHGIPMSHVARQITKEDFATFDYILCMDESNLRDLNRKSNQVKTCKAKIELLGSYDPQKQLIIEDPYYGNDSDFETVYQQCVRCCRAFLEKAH

Sequence of CYP3A4 (P08684 whole entry): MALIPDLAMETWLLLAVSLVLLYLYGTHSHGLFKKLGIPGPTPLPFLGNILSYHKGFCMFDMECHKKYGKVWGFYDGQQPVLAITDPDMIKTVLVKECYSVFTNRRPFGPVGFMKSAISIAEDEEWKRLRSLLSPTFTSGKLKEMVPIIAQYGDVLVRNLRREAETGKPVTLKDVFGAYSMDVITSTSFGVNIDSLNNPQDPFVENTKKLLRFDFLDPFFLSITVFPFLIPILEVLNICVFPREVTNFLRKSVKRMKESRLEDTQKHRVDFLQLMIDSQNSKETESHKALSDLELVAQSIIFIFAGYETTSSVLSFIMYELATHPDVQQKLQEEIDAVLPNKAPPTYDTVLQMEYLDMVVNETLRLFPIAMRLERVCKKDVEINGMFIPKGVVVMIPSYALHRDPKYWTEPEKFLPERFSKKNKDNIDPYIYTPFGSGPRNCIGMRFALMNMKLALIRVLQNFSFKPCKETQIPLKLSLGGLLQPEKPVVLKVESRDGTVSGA
Sequence of CYP2D6 (P10635 whole entry): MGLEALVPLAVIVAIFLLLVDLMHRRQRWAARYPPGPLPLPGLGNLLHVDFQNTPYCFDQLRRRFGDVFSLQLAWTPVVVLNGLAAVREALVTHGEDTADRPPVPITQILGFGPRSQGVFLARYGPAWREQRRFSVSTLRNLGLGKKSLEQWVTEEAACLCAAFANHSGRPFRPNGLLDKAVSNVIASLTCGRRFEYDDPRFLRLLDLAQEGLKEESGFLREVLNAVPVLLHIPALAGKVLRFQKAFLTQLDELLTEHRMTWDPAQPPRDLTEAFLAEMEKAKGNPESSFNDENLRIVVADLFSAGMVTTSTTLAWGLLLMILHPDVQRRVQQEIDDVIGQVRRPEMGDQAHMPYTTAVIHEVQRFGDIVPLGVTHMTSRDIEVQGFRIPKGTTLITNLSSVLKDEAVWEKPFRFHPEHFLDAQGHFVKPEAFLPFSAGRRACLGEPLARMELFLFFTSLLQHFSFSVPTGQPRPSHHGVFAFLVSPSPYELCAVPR
Sequence of CYP2C9 (P11712 whole entry): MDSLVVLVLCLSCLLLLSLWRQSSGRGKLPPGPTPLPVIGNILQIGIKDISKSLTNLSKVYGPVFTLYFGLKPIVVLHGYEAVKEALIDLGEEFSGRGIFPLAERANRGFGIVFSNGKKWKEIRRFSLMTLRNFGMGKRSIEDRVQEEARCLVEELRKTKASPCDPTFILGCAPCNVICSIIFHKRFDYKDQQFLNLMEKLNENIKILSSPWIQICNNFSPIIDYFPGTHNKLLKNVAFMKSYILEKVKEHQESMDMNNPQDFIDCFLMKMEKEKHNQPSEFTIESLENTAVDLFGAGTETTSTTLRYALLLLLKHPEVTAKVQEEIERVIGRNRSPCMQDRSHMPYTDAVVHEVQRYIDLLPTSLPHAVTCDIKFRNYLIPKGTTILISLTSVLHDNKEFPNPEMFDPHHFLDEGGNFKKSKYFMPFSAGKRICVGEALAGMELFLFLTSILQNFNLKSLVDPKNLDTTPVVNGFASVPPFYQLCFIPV

remaining at 0.5 h, 4 µM [1]: 17%
inhibition at 0.05 h [2]: 5%
inhibition at 0.05 h [3]: 9%
inhibition at 10 min [4]: 69%
solubility [5]: 660 µg/mL (≈ 1890 µM)
remaining at 0.5 h, 4 µM [6]: 61%
remaining at 0.5 h, 4 µM [7]: 54%
Fu [8]: < 0.006
Compound: O=C(Nc1nc2ccccc2s1)C(c1ccccc1)S(=O)(=O)O (configuration not stated)

IC50 [9]: 300 nM
AUC [10]: 2.09 µM·h
remaining at 0.5 h, 4 µM [1]: 50%
inhibition at 0.05 h [2]: 1%
t1/2 [11]: 3 h
Tmax [12]: 2.7 h
fCmax [13]: < 43 nM
Cmax [14]: 6.12 µM
bioavailability [15]: 50%
t1/2 [16]: 5.2 h
inhibition at 0.05 h [3]: 0%
IC50 [17]: 200 nM
inhibition at 10 min [4]: 79%
t1/2 [18]: 2 h
AUC [19]: 37.1 µM·h
Vdss [20]: 3.4 L/kg
Cmax [21]: 1.02 µM
solubility [5]: 920 µg/mL (≈ 1990 µM)
remaining at 0.5 h, 4 µM [6]: 59%
remaining at 0.5 h, 4 µM [7]: 34%
IC50 [22]: > 200000 nM
fCmax [23]: < 30 nM
AUC [24]: 5.24 µM·h
Cmax [25]: 4.94 µM
Fu [8]: < 0.006
fCmax [26]: < 6 nM
Compound: Cc1c(Br)cc(NC(=O)C(c2ccccc2)S(=O)(=O)O)cc1Br (configuration not stated)

Compound: CS(=O)(=O)c1ccc2nc(NC(=O)CS(=O)(=O)O)sc2c1
IC50 [27]: 300 nM

Compound: Cc1cc([N+](=O)[O-])c2nc(NC(=O)CS(=O)(=O)O)sc2c1
IC50 [27]: 400 nM

Compound: Cc1c(Br)cc(NC(=O)[C@@H](c2cncs2)S(=O)(=O)O)cc1Br
IC50 [27]: 11400 nM

Compound: O=C(Nc1nccs1)NS(=O)(=O)O
IC50 [27]: 49 nM

Compound: O=C(CS(=O)(=O)O)Nc1nc2ccc(C(F)(F)F)cc2s1
IC50 [27]: 600 nM

Compound: O=C(CS(=O)(=O)O)Nc1cnc(N2CCOCC2)c(Br)c1
IC50 [27]: 1200 nM

Compound: O=C(CS(=O)(=O)O)Nc1ccccc1
IC50 [27]: > 100000 nM

Compound: O=C(CS(=O)(=O)O)Nc1nc2cc([N+](=O)[O-])ccc2s1
IC50 [27]: 400 nM

Compound: O=C(CS(=O)(=O)O)Nc1ncc(-c2ccccc2)s1
IC50 [27]: 1500 nM

Compound: O=C(CS(=O)(=O)O)Nc1nccs1
IC50 [27]: 12200 nM

Compound: O=C(CS(=O)(=O)O)Nc1nc2ccc(C(=O)N3CCCC3)cc2s1
IC50 [27]: 300 nM

Compound: O=C(CS(=O)(=O)O)Nc1cc(Br)cc(C(F)(F)F)c1
IC50 [27]: 5200 nM

Compound: Cc1ccc2nc(NC(=O)CS(=O)(=O)O)sc2c1
IC50 [27]: 1700 nM
